Data: patent publication EP2787003A1, “Antimicrobial peptide produced by marine sponge-derived Bacillus subtilis” (priority 2013, dated 2014)

Experiments:
C. lusitaniae = experiment: Spot on lawn assay; assay type: cell-based, Candida lusitaniae; set-up: key: +, clear halo of growth inhibition; ++: multiple +, increased activity as assessed visually by the increased diameter of the inhibition zone; +++: multiple +, increased activity as assessed visually by the increased diameter of the inhibition zone; ++++: multiple +, increased activity as assessed visually by the increased diameter of the inhibition zone; +++++: multiple +, increased activity as assessed visually by the increased diameter of the inhibition zone; -, no inhibition; conditions: indicator C. lusitaniae
Procedure: (§1) Antimicrobial activity of isolate MMA7 against the indicator strains was initially assessed with a deferred antagonism assay as described by Phelan et al. (2012). Subsequent testing of supernatants, crude extracts and purified compounds was carried out with a well and/or a spot on lawn assays. Essentially, 5 µl of samples were spotted onto 20 ml agar plates seeded with the indicator strain to a final OD600 of 0.015, or 30 µl aliquots were applied to a 5 mm well made on identical plates.

S. aureus = experiment: Spot on lawn assay; assay type: cell-based, Staphylococcus aureus NCDO 949; set-up: key: +, clear halo of growth inhibition; ++: multiple +, increased activity as assessed visually by the increased diameter of the inhibition zone; +++: multiple +, increased activity as assessed visually by the increased diameter of the inhibition zone; ++++: multiple +, increased activity as assessed visually by the increased diameter of the inhibition zone; +++++: multiple +, increased activity as assessed visually by the increased diameter of the inhibition zone; -, no inhibition; conditions: indicator S. aureus
Procedure: as §1

L. lactis HP = experiment: Spot on lawn assay; assay type: cell-based, Lactococcus lactis HP; set-up: key: +, clear halo of growth inhibition; ++: multiple +, increased activity as assessed visually by the increased diameter of the inhibition zone; +++: multiple +, increased activity as assessed visually by the increased diameter of the inhibition zone; ++++: multiple +, increased activity as assessed visually by the increased diameter of the inhibition zone; +++++: multiple +, increased activity as assessed visually by the increased diameter of the inhibition zone; -, no inhibition; conditions: indicator L. lactis HP
Procedure: as §1

B. megaterium = experiment: Spot on lawn assay; assay type: cell-based, Bacillus megaterium ATCC 19213 (BGSC 7A2); set-up: key: +, clear halo of growth inhibition; ++: multiple +, increased activity as assessed visually by the increased diameter of the inhibition zone; +++: multiple +, increased activity as assessed visually by the increased diameter of the inhibition zone; ++++: multiple +, increased activity as assessed visually by the increased diameter of the inhibition zone; +++++: multiple +, increased activity as assessed visually by the increased diameter of the inhibition zone; -, no inhibition; conditions: indicator B. megaterium
Procedure: as §1

[1] = dried pellets from 1.5 ml RP-HPLC-purified fractions
hVISA = experiment: Spot on lawn assay; assay type: cell-based, hVISA 35197; set-up: key: +, clear halo of growth inhibition; ++: multiple +, increased activity as assessed visually by the increased diameter of the inhibition zone; +++: multiple +, increased activity as assessed visually by the increased diameter of the inhibition zone; ++++: multiple +, increased activity as assessed visually by the increased diameter of the inhibition zone; +++++: multiple +, increased activity as assessed visually by the increased diameter of the inhibition zone; -, no inhibition; conditions: indicator hVISA

C=C1NC(=O)[C@@H]2CSC[C@@H](NC(=O)[C@@H]3CS[C@@H](C)[C@H]4NC(=O)[C@H](Cc5ccccc5)NC(=O)[C@H](NC(=O)[C@H](CCCNC(=N)N)NC(=O)[C@@H]5CSC[C@@H](NC(=O)[C@H](CCC(N)=O)NC(=O)[C@@H](NC(=O)[C@@H](NC(=O)/C(=C/C)NC(=O)[C@H](CCCCN)NC(=O)CNC(=O)[C@@H](NC(=O)/C(=C/C)NC(=O)[C@H](C)NC(=O)[C@H](Cc6c[nH]c7ccccc67)NC(=O)C(=O)CC)[C@@H](C)CC)[C@@H](C)CC)C(C)C)C(=O)N[C@@H](C(C)C)C(=O)N[C@@H](CCCCN)C(=O)N[C@@H](CCCCN)C(=O)N5)[C@H](C)SC[C@H](NC4=O)C(=O)NCC(=O)N3)C(=O)N[C@@H](CC(C)C)C(=O)NCC(=O)N[C@H](CSC[C@@H](C(=O)N[C@@H](CC(N)=O)C(=O)O)NC(=O)[C@H](CC(N)=O)NC1=O)C(=O)N2 [Subtilomycin]
Antimicrobial activity, spot on lawn assay (C. lusitaniae): - | Antimicrobial activity, spot on lawn assay (S. aureus): + | Antimicrobial activity, spot on lawn assay (L. lactis HP): + | Antimicrobial activity, spot on lawn assay (B. megaterium): ++ | Solubility in water [1]: fully soluble | Antimicrobial activity, spot on lawn assay (hVISA): +
